The results in this text go back to ChEMBL document CHEMBL4145541, “Tricyclic pyrazolo[1,5-d][1,4]benzoxazepin-5(6H)-one scaffold derivatives: Synthesis and biological evaluation as selective BuChE inhibitors” (Eur J Med Chem, 2018).

A word on the IC50: it is the point on the concentration scale where inhibition reaches its midpoint. A low value points to inhibition by little substance. The term inhibition denotes the drop in the measured response relative to a control, in per cent. In general, logD refers to lipophilicity at a set pH, counting ionised and neutral species.

One data set deals with Acetylcholinesterase (Electrophorus electricus, UniProt O42275). Kind of data set: (§1) Inhibition of electric eel AChE at 20 uM using acetylthiocholine iodide as substrate preincubated for 20 mins followed by substrate addition and measured after 20 mins by Ellman's method relative to control. The conditions noted are these: 20 min, 20 µM.
Data set [1] addresses T1, Cholinesterase (Equus caballus, UniProt P81908). Kind of data set: Inhibition of equine serum BuChE using butyrylthiocholine iodide as substrate preincubated for 20 mins followed by substrate addition and measured after 20 mins by Ellman's method.
Data set [2] has as its target acetylcholinesterase (AChE) (Electrophorus electricus, UniProt O42275). The data set is described as §1. The note with it: electric eel acetylcholinesterase enzyme, probe acetylthiocholine iodide.
The target of data set [3] is T1, Cholinesterase. Briefly: Mixed-type inhibition of equine serum BuChE using varying levels of butyrylthiocholine iodide as substrate preincubated for 20 mins followed by substrate addition and measured after 20 mins by Lineweaver-Burk plot analysis. The conditions noted are these: read-out: Ki(app).
Data set [4] is described as follows: Octanol-water partition coefficient, log P of the compound at pH 7.4 after 24 hrs by shake flask method. It is filed as physicochemical.
For data set [5], the target named is Cholinesterase (Equus caballus) (UniProt P81908). Kind of data set: Inhibition of equine serum BuChE at 20 uM using butyrylthiocholine iodide as substrate preincubated for 20 mins followed by substrate addition and measured after 20 mins by Ellman's method relative to control. In general terms: In Ellman's method for cholinesterases, released thiocholine reacts with DTNB.

The nature of data set [6]: Cytotoxicity against rat PC12 cells assessed as cell viability up to 50 uM after 24 hrs by MTT assay relative to control. On the technique in general: Formazan colour is commonly taken as a measure of viable cells.
Data set [7] addresses T1, Cholinesterase. Kind of data set: Non-competitive inhibition of equine serum BuChE using varying levels of butyrylthiocholine iodide as substrate preincubated for 20 mins followed by substrate addition and measured after 20 mins by Lineweaver-Burk plot analysis. The note with it: read-out: Ki(app).
The subject of the next data set is PC-12. Kind of data set: Neuroprotection against H2O2-induced oxidative stress in rat PC12 cells assessed as cell viability at 25 uM preincubated for 3 hrs followed by H2O2 addition and measured after 24 hrs by MTT assay relative to control. The conditions noted are these: read-out: Activity. Type of data set: functional.

Activity calls are given as the source filed them. The rule behind the calls is not given here.

Cholinesterase (Equus caballus), sequence (P81908 whole entry): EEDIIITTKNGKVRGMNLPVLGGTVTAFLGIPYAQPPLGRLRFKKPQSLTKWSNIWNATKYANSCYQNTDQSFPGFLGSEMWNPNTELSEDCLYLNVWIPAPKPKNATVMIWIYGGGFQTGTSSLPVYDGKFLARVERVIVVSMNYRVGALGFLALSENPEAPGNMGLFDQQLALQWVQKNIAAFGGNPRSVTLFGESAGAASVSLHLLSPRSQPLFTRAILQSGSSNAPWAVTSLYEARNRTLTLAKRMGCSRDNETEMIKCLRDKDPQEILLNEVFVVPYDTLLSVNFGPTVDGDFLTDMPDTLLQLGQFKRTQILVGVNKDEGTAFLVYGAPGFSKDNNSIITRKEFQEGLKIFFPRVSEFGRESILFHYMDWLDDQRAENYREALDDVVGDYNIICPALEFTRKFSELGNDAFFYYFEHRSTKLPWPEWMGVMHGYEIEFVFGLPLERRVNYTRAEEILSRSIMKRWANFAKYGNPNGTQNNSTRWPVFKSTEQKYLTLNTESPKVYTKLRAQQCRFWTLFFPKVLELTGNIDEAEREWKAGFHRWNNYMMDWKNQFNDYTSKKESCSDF
T1 sequence (P81908 whole entry): as above
acetylcholinesterase (AChE), sequence (O42275 whole entry): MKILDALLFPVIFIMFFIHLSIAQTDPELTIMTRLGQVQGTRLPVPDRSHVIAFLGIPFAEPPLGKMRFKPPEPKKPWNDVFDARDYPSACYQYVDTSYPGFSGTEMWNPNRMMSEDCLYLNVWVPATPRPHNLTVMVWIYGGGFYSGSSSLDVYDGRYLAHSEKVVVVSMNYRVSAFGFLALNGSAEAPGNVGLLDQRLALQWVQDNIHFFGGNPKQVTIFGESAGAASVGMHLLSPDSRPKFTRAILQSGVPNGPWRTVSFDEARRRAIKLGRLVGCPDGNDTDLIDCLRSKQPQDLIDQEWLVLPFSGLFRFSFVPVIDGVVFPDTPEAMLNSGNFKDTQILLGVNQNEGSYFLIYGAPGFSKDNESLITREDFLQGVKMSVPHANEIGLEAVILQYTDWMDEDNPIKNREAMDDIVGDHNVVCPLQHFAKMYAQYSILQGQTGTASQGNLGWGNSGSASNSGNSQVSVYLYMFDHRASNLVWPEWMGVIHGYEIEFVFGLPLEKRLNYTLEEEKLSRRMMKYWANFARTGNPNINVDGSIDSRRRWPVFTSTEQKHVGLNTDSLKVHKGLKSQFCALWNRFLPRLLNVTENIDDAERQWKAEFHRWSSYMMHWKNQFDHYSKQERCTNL
Acetylcholinesterase, sequence (O42275 whole entry): as above

As for `CC[C@H]1Oc2c(Br)cc(Cl)cc2C2CC(C)=NN2C1=O` (some centres undefined), the “inhibition (INH)” value against Acetylcholinesterase is “Not Active”. For the same molecule, the half-inhibitory concentration (IC50) against Cholinesterase [1] was determined as 1.14 µM.
Regarding `CCC1Oc2c(Br)cc(Br)cc2C2CC(C)=NN2C1=O` (centres undefined), the inhibition at 20 min, 20 µM in data set [2] is 41%. The IC50 on Cholinesterase [1] is 2.92 µM. The Ki at Cholinesterase [3] turned out to be 7.6 µM. Further, the logD at 24 h in data set [4] turned out to be 1.08.
In the case of `COc1cccc2c1OCC(=O)N1N=C(C)CC21` (centres undefined), the inhibition at 20 min, 20 µM in [2] came to 34%. This molecule had an inhibition in data set [5] of 2%.
Turning to `CC1=NN2C(=O)C(C)Oc3c(Br)cc(Cl)cc3C2C1` (centres undefined), the “inhibition (INH)” value against Acetylcholinesterase is reported as “Not Active”. Besides, on Cholinesterase [1], half-maximal inhibition (IC50) was put at 11.1 µM. Besides, the logD at 24 h in [4] stood at 2.18.
On to `CC1Oc2ccc(Cl)cc2C2CC(c3ccc(F)cc3)=NN2C1=O` (centres undefined), for which the “inhibition (INH)” value on Acetylcholinesterase is reported as “Not Active”. In [5], this molecule registered an inhibition of 17%.
`O=C1COc2ccc(Br)cc2C2CC(c3ccco3)=NN12` (centres undefined): in [2], the inhibition at 20 min, 20 µM was determined as 25%. This molecule came in with an inhibition in data set [5] of 20%.
On the same counts, the results for `CC1Oc2c(Cl)cc(Cl)cc2C2CC(c3ccco3)=NN2C1=O` (centres undefined) are 28% and 23%.
In data set [2], `CC1=NN2C(=O)C(C)Oc3c(Cl)cc(Cl)cc3C2C1` (centres undefined) registered an inhibition at 20 min, 20 µM of 22%. Moreover, the half-inhibitory concentration (IC50) against Cholinesterase [1] is 5.95 µM. This molecule yielded a logD at 24 h in [4] of 2.49.
`CC1=NN2C(=O)C(C)Oc3ccc(C)cc3C2C1` (centres undefined) showed an inhibition at 20 min, 20 µM in [2] of 22%. Also, the inhibition in data set [5] was determined as 1%.
Taken in the same sequence, the figures for `CC1=NN2C(=O)COc3ccc(Br)cc3C2C1` (centres undefined) were 29% and “inactive”.
In the case of `CC1Oc2ccc(Br)cc2C2CC(c3ccc(F)cc3)=NN2C1=O` (centres undefined), on Acetylcholinesterase, the “inhibition (INH)” value was “Not Active”. In addition, the inhibition in [5] came out at 45%.
Turning to `CCC1Oc2ccc(Br)cc2C2CC(C)=NN2C1=O` (centres undefined), the “inhibition (INH)” value against Acetylcholinesterase is reported as “Not Active”. This molecule showed an inhibition in [5] of 39%. This molecule also showed a logD at 24 h in data set [4] of 1.11.
In data set [2], `CC1=NN2C(=O)COc3c(Br)cc(Cl)cc3C2C1` (centres undefined) yielded an inhibition at 20 min, 20 µM of 32%. In [5], the inhibition turned out to be 18%.
Take `CC[C@@H]1Oc2c(Br)cc(Cl)cc2C2CC(C)=NN2C1=O` (some centres undefined): the “inhibition (INH)” value against Acetylcholinesterase is “Not Active”. Besides, it took 20.4 µM to reach half-maximal inhibition at Cholinesterase [1] (IC50).
In the case of `CC1=NN2C(=O)C(C)Oc3ccc(Br)cc3C2C1` (centres undefined), the inhibition at 20 min, 20 µM in data set [2] was 23%. Further, the inhibition in data set [5] was determined as 18%.
Taken in the same sequence, the figures for `CC1=NN2C(=O)COc3ccc(Cl)cc3C2C1` (centres undefined) were 2% and “inactive”.
`CCC1Oc2ccc(Cl)cc2C2CC(C)=NN2C1=O` (centres undefined): the “inhibition (INH)” value against Acetylcholinesterase is reported as “Not Active”. Further, it took 12.8 µM to reach half-maximal inhibition on Cholinesterase [1] (IC50). In data set [4], this molecule came in with a logD at 24 h of 1.05.
Take `CC1=NN2C(=O)COc3c(Br)cc(Br)cc3C2C1` (centres undefined): the “inhibition (INH)” value against Acetylcholinesterase was “Not Active”. Besides, in [5], the inhibition is 24%.
On the same counts, the results for `CC1Oc2c(Br)cc(Br)cc2C2CC(c3ccc(F)cc3)=NN2C1=O` (centres undefined) are “Not Active” and “inactive”.
On the same counts, the results for `CC1=NN2C(=O)C(C)Oc3c(Br)cc(Br)cc3C2C1` (centres undefined) are “Not Active” and 11%.
In data set [2], `CCC1Oc2c(Cl)cc(Cl)cc2C2CC(C)=NN2C1=O` (centres undefined) returned an inhibition at 20 min, 20 µM of 26%. Also, 4.67 µM corresponded to half-maximal inhibition against Cholinesterase [1] (IC50). In addition, the logD at 24 h in [4] is 1.12.
Take `COc1cc2c(cc1OC)C(=O)C(CC1CCN(Cc3ccccc3)CC1)C2` (centres undefined) [DONEPEZIL]: the viability at 24 h in [6] (pc-12) is above 90%.
Molecule `CC1=NN2C(=O)COc3ccc(C)cc3C2C1` (centres undefined) registered an inhibition at 20 min, 20 µM in data set [2] of 24%. Besides, in data set [5], the inhibition result was “inactive”.
Taken in the same sequence, the figures for `CC1=NN2C(=O)COc3c(Cl)cc(Cl)cc3C2C1` (centres undefined) were 25% and 31%.
As for `CC1=NN2C(=O)C(C)Oc3ccc(Cl)cc3C2C1` (centres undefined), the “inhibition (INH)” value at Acetylcholinesterase is “Not Active”. In data set [5], this molecule had an inhibition of 39%.
Turning to `CCC1Oc2c(Br)cc(Cl)cc2C2CC(C)=NN2C1=O` (centres undefined), on Acetylcholinesterase, the “inhibition (INH)” value is given as “Not Active”. This molecule registered an IC50 against Cholinesterase [1] of 2.04 µM. For the same molecule, at Cholinesterase [7], the Ki worked out at 1.5 µM. Besides, the viability at 24 h in [6] (PC12 cells) was above 90%. Further, in the data set with PC-12, the viability at 25 µM is 70%. In addition, the logD at 24 h in [4] was determined as 1.57.
Molecule `COc1cccc2c1OC(C)C(=O)N1N=C(C)CC21` (centres undefined) returned an inhibition at 20 min, 20 µM in data set [2] of 24%. The inhibition entry in data set [5] was “inactive”.
